How the values were obtained:
[1] = human subject, single-ascending i.v. doses 500-1,000 mg/kg every 4 weeks; after treatment vs pre-dose; FIG. 1A
Procedure: A human subject was treated with 2-hydroxypropyl-beta-cyclodextrin with single-ascending doses administered intravenously every 4 weeks according to Table 1 below. […] For each dose, whole blood was collected pre-dose, post-dose (line flush), 1 hour post-dose, and 24 hours post-dose. Plasma was separated from the whole blood and subjected to a cholesterol crystal dissolution capacity (CCDC) assay using techniques similar to those described in the literature. The CCDC assay measures the ability of a sample to dissolve cholesterol crystals.

[2] = human subject, i.v. 500-1,000 mg/kg every 4 weeks, FIGS. 2A-2C
Procedure: (§1) A human subject was treated with 2-hydroxypropyl-beta-cyclodextrin with single-ascending doses administered intravenously every 4 weeks according to Table 1 below.
In this Example, a human subject was treated with 2-hydroxypropyl-beta-cyclodextrin according to Example 1, and plasma levels of 24S-hydroxycholesterol and 27-hydroxycholesterol were measured. […] 27-hydroxycholesterol is an endogenous LXR ligand leading to a downstream anti-inflammatory gene signature which may, in some embodiments, address the detrimental inflammatory response via NLRP3 inflammasome effects of cholesterol crystal embolization. The elevated 27-hydroxycholesterol is also a cellular marker of macrophage activation and increased activity for cholesterol crystal phagocytosis and clearance.

[3] = pre-dose human plasma incubated ex vivo with the substance; FIG. 1B
Procedure: For each dose, whole blood was collected pre-dose, post-dose (line flush), 1 hour post-dose, and 24 hours post-dose. Plasma was separated from the whole blood and subjected to a cholesterol crystal dissolution capacity (CCDC) assay using techniques similar to those described in the literature. The CCDC assay measures the ability of a sample to dissolve cholesterol crystals.
Blood plasma pre-dose was also incubated ex vivo with 2-hydroxypropyl-beta-cyclodextrin and the ability of the plasma to dissolve cholesterol crystals was measured.

ABCA1 = conditions: peripheral blood, human subject, i.v. 500-1,000 mg/kg every 4 weeks; FIGS. 3A-3D
Procedure: as §1
(§2) In this Example, a human subject was treated with 2-hydroxypropyl-beta-cyclodextrin according to Example 1, and mRNA levels of the LXR transcription factor-regulated genes, ABCA1 and ABCG1, were measured. […] ABCA1 and ABCG1 are important cholesterol transporters and are responsible for cholesterol efflux from cells, loading of HDL particles for reverse cholesterol transport (RCT), and excretion via the hepatic pathway, to potentially reduce the cholesterol and cholesterol crystal emboli released into the vasculature and stabilize ruptured atherosclerotic plaque.

ABCG1 = conditions: peripheral blood, human subject, i.v. 500-1,000 mg/kg every 4 weeks; FIGS. 3A-3D
Procedure: as §1, §2

2-hydroxypropyl-beta-cyclodextrin
capability of blood plasma to dissolve cholesterol crystals (CCDC) [1]: increased capability of blood plasma to dissolve cholesterol crystals | plasma levels of 24S-hydroxycholesterol [2]: increased | plasma levels of 27-hydroxycholesterol [2]: increased | total cholesterol levels ([2]; plasma): remained stable | capacity of plasma to dissolve cholesterol crystals (CCDC) [3]: increased capacity to dissolve cholesterol crystals | mRNA levels of ABCA1 (ABCA1): increased | mRNA levels of ABCG1 (ABCG1): increased

— US20230330133A1, “METHODS FOR THE TREATMENT OF CHOLESTEROL CRYSTAL EMBOLIZATION WITH CYCLODEXTRINS” (Beren Therapeutics P.B.C., priority 2020, published 2023)
